Values quoted from earlier work, collected in patent publication US7914812B2, “Wound care dressing and method using same” (priority 2004, dated 2011).

Details: for solubility: at about 37° C., i.e. body temperature, water

| Solubility ww % (25° C.) | solubility | Compound |
| --- | --- | --- |
| 36 ww % | – | OC[C@@H](O)[C@@H](O)CO [Erythritol] |
| 58 ww % | – | OC[C@@H](O)[C@@H](O[C@@H]1O[C@H](CO)[C@H](O)[C@H](O)[C@H]1O)[C@H](O)[C@@H](O)CO [Lactitol] |
| 60 ww % | – | OC[C@@H](O)[C@@H](O[C@H]1O[C@H](CO)[C@@H](O)[C@H](O)[C@H]1O)[C@H](O)[C@@H](O)CO [Maltitol] |
| 18 ww % | about 23 grams per 100 grams of water | OC[C@@H](O)[C@@H](O)[C@H](O)[C@H](O)CO [Mannitol] |
| 72 ww % | – | OC[C@@H](O)[C@@H](O)[C@H](O)[C@@H](O)CO [Sorbitol] |
| 66 ww % | – | OC[C@@H](O)[C@H](O)[C@@H](O)CO [Xylitol] |
| – | about 78 grams per 100 grams of water | OC[C@H]1O[C@@](CO)(O[C@H]2O[C@H](CO)[C@@H](O)[C@H](O)[C@H]2O)[C@@H](O)[C@@H]1O [sucrose] |
| 28 ww % | – | Isomalt |
